Molecular target: BRD4-BD1 (Homo sapiens (Human), UniProt O60885)
Test: BRD4-H4 Tetraacetylated Peptide Inhibition AlphaScreen
Type: binding
Settings: GST-BRD4-BD1 (aa 44-168), biotinylated Acetyl-Histone H4 peptide
Procedure: Compounds are diluted in serial dilution 1:5 in assay buffer from 10 mM stock in DMSO (100 μM start concentration) in white OptiPlate-384 (PerkinElmer). […] Subsequently, 6 μl of premixed AlphaLISA Glutathione Acceptor Beads and AlphaScreen Streptavidin Donor Beads from PerkinElmer (in assay buffer at a concentration of 10 μg/ml each) are added and the samples are incubated for 30 min at RT in the dark (shaking 300 rpm). Afterwards, the signal is measured in a PerkinElmer Envision HTS Multilabel Reader using the AlphaScreen protocol from PerkinElmer. […] Negative control values are entered as low basis value when using the software GraphPad Prism for calculations. Furthermore, a positive control (probe molecule JQ1+ with protein/peptide mix) is pipetted. Determination of IC50 values are carried out using GraphPad Prism 3.03 software (or updates thereof).

IC50 [nM]	Structure (SMILES)
62	COC[C@H](C)n1c(-c2cc(C)c(=O)n(C)n2)nc2cnc(N3CCOC[C@@H]3C)cc21 [II-30]
40	Cc1cc(-c2nc3cnc(N4CCOC[C@@H]4C)cc3n2[C@@H](C)c2ccccc2)cn(C)c1=O [II-31]
105	Cn1cc(-c2nc3cnc(N4CCOCC4)cc3n2Cc2ccccc2)cc(Cl)c1=O [II-32]
169	Cc1cc(-c2nc3cnc(C(C)C)cc3n2[C@@H](C)c2ccccn2)cn(C)c1=O [II-33]
120	Cc1cc(-c2nc3cnc(C4CCOCC4)cc3n2[C@@H](C)c2ccccn2)cn(C)c1=O [II-34]
211	Cc1cc(-c2nc3cnc(C4=CCOCC4)cc3n2C(C)c2ccccn2)cn(C)c1=O (stereo not shown) [II-35]
650	Cc1cc(-c2nc3cnc(Cl)cc3n2C(C)c2ccccn2)cn(C)c1=O (stereo not shown) [II-36]
172	Cc1cc(-c2nc3cnc(N4CCOCC4)cc3n2C(C)c2ccccn2)cn(C)c1=O (stereo not shown) [II-37]
205	Cc1cc(-c2nc3cnc(OC(C)C)cc3n2[C@@H](C)c2ccccn2)cn(C)c1=O [II-38]
211	Cc1cc(-c2nc3cnc(OC4CCOC4)cc3n2[C@@H](C)c2ccccn2)cn(C)c1=O (stereo partly shown) [II-39]
295	Cc1cc(-c2nc3cnc(C4=CCCCO4)cc3n2C(C)c2ccccn2)cn(C)c1=O (stereo not shown) [II-40]
1200	Cc1c(-c2nc3cnc(N4CCN(C)CC4)cc3n2Cc2ccccc2)cn(C)c(=O)c1C [II-41]
35	Cc1cc(-c2nc3cnc(N)cc3n2[C@@H](C)c2ccccc2)cn(C)c1=O [II-42]
50	Cc1cc(-c2nc3cnc(N4CCOC[C@@H]4C)cc3n2C(C)CC2CC2)cn(C)c1=O (stereo partly shown) [II-43]
188	CCOc1cc(=O)n(C)cc1-c1nc2cnc(C3CCOCC3)cc2n1[C@@H](C)c1ccccc1 [II-44]
95	Cc1cc(-c2nc3cnc(C4CCOCC4)cc3n2[C@H](C)c2ccccc2)cn(C)c1=O [II-45]
697	CN1CCN(c2ccc3nc(-c4ccc(=O)n(C)c4)n(Cc4ccccc4)c3n2)CC1 [III-1, 5-[3-Benzyl-5-(4-methyl-piperazin-1-yl)-3H-imidazo[4,5-b]pyridin-2-yl]-1-methyl-1H-pyridin-2-one]
1780	Cn1cc(-c2nc3cccnc3n2Cc2ccccc2)ccc1=O [III-2]
45	Cc1cc(-c2nc3cccnc3n2Cc2ccccc2)cn(C)c1=O [III-3]
118	Cc1cc(-c2nc3ccc(OC(C)C)nc3n2[C@@H](C)c2ccccn2)nn(C)c1=O [III-4]

IC50 [nM]	Structure (SMILES)
117	Cc1cc(-c2nc3ccc(OC(C)C)nc3n2[C@@H](C)c2ccccc2)nn(C)c1=O [III-5]
108	CCCOc1ccc2nc(-c3cc(C)c(=O)n(C)c3)n([C@@H](C)c3ccccc3)c2n1 [III-6]
220	Cc1cc(-c2nc3ccc(OC(C)C)nc3n2C(C)c2ccccn2)cn(C)c1=O (stereo not shown) [III-7]
217	Cc1cc(-c2nc3ccc(OC4CCN(C)CC4)nc3n2C(C)c2ccccn2)cn(C)c1=O (stereo not shown) [III-9]
313	Cc1cc(-c2nc3ncccc3n2Cc2ccccc2)cn(C)c1=O [IV-1]
218	CC1CC(=O)NN=C1c1ccc2c(c1)nc(-c1ccc(=O)n(C)c1)n2Cc1ccccc1 (stereo not shown) [IV-2]
188	Cc1cc(-c2nc3cc(Cl)cnc3n2Cc2ccccc2)cn(C)c1=O [IV-3]
60	Cc1cc(-c2nc3ccncc3n2Cc2ccccc2)cn(C)c1=O [IV-4]
32	Cc1cc(-c2nc3cc(N4CCOCC4)cnc3n2Cc2ccccc2)cn(C)c1=O [IV-5]
23	Cc1cc(-c2nc3cc(N4CCN(C)CC4)cnc3n2Cc2ccccc2)cn(C)c1=O [IV-6]
16	Cc1cc(-c2nc3cc(C4CCOCC4)cnc3n2Cc2ccccc2)cn(C)c1=O [IV-7]
70	Cc1cnc2c(c1)nc(-c1cc(C)c(=O)n(C)c1)n2Cc1ccccc1 [IV-8]
119	Cc1cc(-c2nc3cc(S(=O)(=O)N(C)C)cnc3n2Cc2ccccc2)cn(C)c1=O [IV-9]
109	Cc1cc(-c2nc3cccc(C)c3n2Cc2ccccn2)cn(C)c1=O [IV-10]
12	Cc1cc(-c2nc3cnc(N4CCOC[C@@H]4C)nc3n2[C@@H](C)c2ccccc2)cn(C)c1=O [IV-11]
38	Cc1cc(-c2nc3cc(N)cnc3n2Cc2ccccc2)cn(C)c1=O [IV-12]
4810	Cc1cc(-c2nc3cc(Cl)c(Cl)cc3n2Cc2ccc(Cl)c(Cl)c2)cn(C)c1=O [IV-13]
50	Cc1cc(-c2nc3cnc(N4CCOCC4)nc3n2Cc2ccccc2)cn(C)c1=O [IV-14]
17	Cc1cc(-c2nc3cnc(N4CCOCC4)nc3n2[C@@H](C)c2ccccc2)cn(C)c1=O [IV-15]
136	CNc1cc(-c2nc3ccccc3n2Cc2ccccc2)cn(C)c1=O [VI-1, 5-(1-benzyl-1H-1,3-benzodiazol-2-yl)-1-methyl-3-(methylamino)-1,2-dihydropyridin-2-one]
